From US20160009693A1, “HERBICIDAL COMPOUNDS” (SYNGENTA LIMITED, priority 2013, published 2016)

How the values were obtained:
Format in all cases: in vivo
Conditions in all cases: applied at 1000 g/h, evaluated after 13 days
[1] = tested on: Solanum nigrum (SOLNI); experiment: Herbicidal glasshouse test, pre-emergence, SOLNI
Method in brief: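 Seeds of Solanum nigrum were sown in pots of standard soil and kept one day in a glasshouse at 24/16° C. day/night, 14 hours light and 65% humidity. For the pre-emergence treatment they were then sprayed with an aqueous solution of the active ingredient formulated in acetone/water (50:50) containing 0.5% Tween 20. Plant damage was rated after 13 days.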

[2] = tested on: Ipomoea hederacea (IPOHE); experiment: Herbicidal glasshouse test, pre-emergence, IPOHE
[3] = tested on: Alopecurus myosuroides (ALOMY); experiment: Herbicidal glasshouse test, pre-emergence, ALOMY
[4] = tested on: Setaria faberi (SETFA); experiment: Herbicidal glasshouse test, pre-emergence, SETFA
[5] = tested on: Echinochloa crus-galli (ECHCG); experiment: Herbicidal glasshouse test, pre-emergence, ECHCG
Method in brief: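 Echinochloa crus-galli seeds were sown in standard soil in pots and grown for one day in a glasshouse at 24/16° C. day/night, 14 hours light and 65% humidity. Pre-emergence spraying used an aqueous solution of the active ingredient in acetone/water (50:50) with 0.5% Tween 20. Damage was scored after 13 days on a five point scale.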

[6] = tested on: Setaria faberi (SETFA); experiment: Herbicidal glasshouse test, post-emergence, SETFA
Method in brief: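 Setaria faberi seeds were sown in standard soil in pots and grown for 8 days in a glasshouse at 24/16° C. day/night, 14 hours light and 65% humidity. The seedlings were then sprayed post-emergence with the active ingredient in acetone/water (50:50) containing 0.5% Tween 20. Afterwards they were kept under the same conditions, watered twice daily, and scored for percentage damage on a five point scale.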

[7] = tested on: Amaranthus retoflexus (AMARE); experiment: Herbicidal glasshouse test, pre-emergence, AMARE
Method in brief: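 Amaranthus retoflexus seeds were sown in pots of standard soil and kept one day in a glasshouse at 24/16° C. (day/night), 14 hours light and 65% humidity. They were then sprayed pre-emergence with the active ingredient in acetone/water (50:50) containing 0.5% Tween 20. Plants grew under the same conditions, watered twice daily, and percentage damage was scored after 13 days.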

[8] = tested on: Alopecurus myosuroides (ALOMY); experiment: Herbicidal glasshouse test, post-emergence, ALOMY
[9] = tested on: Ipomoea hederacea (IPOHE); experiment: Herbicidal glasshouse test, post-emergence, IPOHE
[10] = tested on: Solanum nigrum (SOLNI); experiment: Herbicidal glasshouse test, post-emergence, SOLNI
[11] = tested on: Echinochloa crus-galli (ECHCG); experiment: Herbicidal glasshouse test, post-emergence, ECHCG
Method in brief: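 Echinochloa crus-galli (ECHCG) seeds were sown in standard soil in pots and grown for 8 days in a glasshouse at 24/16° C. day/night, 14 hours light and 65% humidity. The young plants were then sprayed post-emergence with the active ingredient in acetone / water (50:50) containing 0.5% Tween 20. Damage was scored after 13 days.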

[12] = tested on: Amaranthus retoflexus (AMARE); experiment: Herbicidal glasshouse test, post-emergence, AMARE
Method in brief: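 Amaranthus retoflexus (AMARE) seeds were sown in pots of standard soil and grown in a glasshouse at 24/16° C. day/night, 14 hours light and 65% humidity for 8 days. The plants were then sprayed post-emergence with an aqueous solution of the active ingredient in acetone/water (50:50) with 0.5% Tween 20. Damage was scored after 13 days.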

| Compound | PRE Application SOLNI, percentage damage (five point scale) [1] | PRE Application IPOHE, percentage damage (five point scale) [2] | PRE Application ALOMY, percentage damage (five point scale) [3] | PRE Application SETFA, percentage damage (five point scale) [4] | PRE Application ECHCG, percentage damage (five point scale) [5] | POST Application SETFA, percentage damage (five point scale) [6] | PRE Application AMARE, percentage damage (five point scale) [7] | POST Application ALOMY, percentage damage (five point scale) [8] | POST Application IPOHE, percentage damage (five point scale) [9] | POST Application SOLNI, percentage damage (five point scale) [10] | POST Application ECHCG, percentage damage (five point scale) [11] | POST Application AMARE, percentage damage (five point scale) [12] |
| --- | --- | --- | --- | --- | --- | --- | --- | --- | --- | --- | --- | --- |
| CC(C)c1ccc(-n2c(=O)c(C(=O)Nc3nnnn3C)nn(C)c2=O)cc1 [Compound 1.046] | 5 (5=80-100%) | 5 (5=80-100%) | 5 (5=80-100%) | 5 (5=80-100%) | 5 (5=80-100%) | 5 (5=80-100%) | 5 (5=80-100%) | 5 (5=80-100%) | 5 (5=80-100%) | 5 (5=80-100%) | 5 (5=80-100%) | 5 (5=80-100%) |
| Cn1nnnc1NC(=O)c1nn(C)c(=O)n(Cc2ccc(C(F)(F)F)cc2)c1=O [Compound 1.057] | 3 (3=40-59%) | 4 (4=60-79%) | 5 (5=80-100%) | 1 (1=0-19%) | 5 (5=80-100%) | 1 (1=0-19%) | 5 (5=80-100%) | 5 (5=80-100%) | 5 (5=80-100%) | 5 (5=80-100%) | 4 (4=60-79%) | 5 (5=80-100%) |
| Cn1nnnc1NC(=O)c1nn(C)c(=O)n(Cc2ccc(F)c(F)c2)c1=O [Compound 1.064] | 5 (5=80-100%) | 5 (5=80-100%) | 5 (5=80-100%) | 1 (1=0-19%) | 5 (5=80-100%) | 2 (2=20-39%) | 5 (5=80-100%) | 2 (2=20-39%) | 5 (5=80-100%) | 5 (5=80-100%) | 5 (5=80-100%) | 5 (5=80-100%) |
| Cn1nnnc1NC(=O)c1nn(C)c(=O)n(Cc2c(F)cccc2F)c1=O [Compound 1.065] | 5 (5=80-100%) | 5 (5=80-100%) | 5 (5=80-100%) | 5 (5=80-100%) | 5 (5=80-100%) | 5 (5=80-100%) | 5 (5=80-100%) | 5 (5=80-100%) | 5 (5=80-100%) | 5 (5=80-100%) | 5 (5=80-100%) | 5 (5=80-100%) |
| COCCOc1ccc(-n2c(=O)c(C(=O)Nc3nnnn3C)nn(C)c2=O)cc1 [Compound 1.023] | 5 (5=80-100%) | 5 (5=80-100%) | 5 (5=80-100%) | 5 (5=80-100%) | 5 (5=80-100%) | 5 (5=80-100%) | 5 (5=80-100%) | 5 (5=80-100%) | 5 (5=80-100%) | 5 (5=80-100%) | 5 (5=80-100%) | 5 (5=80-100%) |
| Cn1cnnc1NC(=O)c1nn(C)c(=O)n(-c2ccccc2)c1=O [Compound 6.001] | 5 (5=80-100%) | 1 (1=0-19%) | 1 (1=0-19%) | 5 (5=80-100%) | 1 (1=0-19%) | 3 (3=40-59%) | 5 (5=80-100%) | 3 (3=40-59%) | 5 (5=80-100%) | 5 (5=80-100%) | 5 (5=80-100%) | 5 (5=80-100%) |
| Cn1nnnc1NC(=O)c1nn(C)c(=O)n(Cc2ccccc2F)c1=O [Compound 1.058] | 5 (5=80-100%) | 5 (5=80-100%) | 5 (5=80-100%) | 5 (5=80-100%) | 5 (5=80-100%) | 5 (5=80-100%) | 5 (5=80-100%) | 5 (5=80-100%) | 5 (5=80-100%) | 5 (5=80-100%) | 5 (5=80-100%) | 5 (5=80-100%) |
| COc1cc(Cn2c(=O)c(C(=O)Nc3nnnn3C)nn(C)c2=O)cc(Cl)n1 [Compound 1.070] | 5 (5=80-100%) | 5 (5=80-100%) | 5 (5=80-100%) | 1 (1=0-19%) | 5 (5=80-100%) | 2 (2=20-39%) | 5 (5=80-100%) | 5 (5=80-100%) | 5 (5=80-100%) | 5 (5=80-100%) | 5 (5=80-100%) | 5 (5=80-100%) |
